Values of other authors in patent US9937166B2 (INFLAMMATORY RESPONSE RESEARCH, INC., priority 2013, dated 2018).
Read-outs that look alike come from different tables or passages of the source.

Tests used:
ALI/ARDS = conditions: in vivo
[1] = tested on: histamine induced wheal and flare
[2] = tested on: IL-4, IL-6, IL-8, ICAM-1, TLR3, NF-kappa B
[3] = in vivo
H1 receptor = H1 receptor (Homo sapiens, UniProt P35367); conditions: acidic pH, inflamed tissue
[4] = not given; remark: listed apart in the source
[5] = for Time to reach steady state level: administered orally
influenza = conditions: in vivo

Chain of H1 receptor (P35367 whole entry): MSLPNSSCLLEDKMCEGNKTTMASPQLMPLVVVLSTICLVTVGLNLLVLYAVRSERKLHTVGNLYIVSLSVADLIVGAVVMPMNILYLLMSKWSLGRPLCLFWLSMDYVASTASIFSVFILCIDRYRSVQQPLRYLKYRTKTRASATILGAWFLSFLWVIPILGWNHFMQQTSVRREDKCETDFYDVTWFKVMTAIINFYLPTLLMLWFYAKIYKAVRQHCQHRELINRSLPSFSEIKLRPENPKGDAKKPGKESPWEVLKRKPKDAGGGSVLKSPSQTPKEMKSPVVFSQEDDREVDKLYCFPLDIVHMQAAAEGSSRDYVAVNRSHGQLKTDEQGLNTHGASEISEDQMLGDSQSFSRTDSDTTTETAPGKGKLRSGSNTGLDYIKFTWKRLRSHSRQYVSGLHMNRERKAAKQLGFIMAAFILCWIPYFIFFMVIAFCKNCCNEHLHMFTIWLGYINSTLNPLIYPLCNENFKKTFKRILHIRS

## CC(=O)N[C@@H](CS)C(=O)O [N-acetylcysteine]
ALI/ARDS
  Outcome in large trials for ALI/ARDS: failed

## CCCCC[C@H](O)/C=C/[C@H]1[C@H](O)CC(=O)[C@@H]1CCCCCCC(=O)O [alprostadil]
ALI/ARDS
  Outcome in large trials for ALI/ARDS: failed

## CC(=O)N1CCN(c2ccc(OCC3COC(Cn4ccnc4)(c4ccc(Cl)cc4Cl)O3)cc2)CC1 (centres unmarked) [ketoconazole]
ALI/ARDS
  Outcome in large trials for ALI/ARDS: failed

## O=C(O)COCCN1CCN([C@H](c2ccccc2)c2ccc(Cl)cc2)CC1 [levocetirizine]
[1]; histamine induced wheal and flare data
  Potency among the five modern generation antihistamines: most potent
[1]; levocetirizine 5 mg per day vs fexofenadine 180 mg per day
  Effectiveness compared with fexofenadine: more effective
Eosinophil migration
  Eosinophil migration: decrease
[2]
  Inflammatory mediators IL-4, IL-6, and IL-8: decrease
[2]; in vivo (so in the source)
  ICAM-1, IL-6, IL-8, TLR3 expression and NF-kappa B activation: decrease
Airway epithelial cells
  Rhinovirus-induced ICAM-1 and cytokine expression and viral replication: inhibits
Higher doses
  Principal side effect experienced at higher doses: Sedation
humans
  Doses that can be safely administered: up to 30 mg/day
[3]
  Steady-state level (time to): 40 h
H1 receptor
  Enhanced receptor affinity over first generation mepyramine / first generation molecules: up to 5 ×
H1 receptor; listed as Levocetirizine
  Enhanced receptor affinity over first generation mepyramine / first generation molecules: 5 ×

## C[C@@H](O)CCCCn1c(=O)c2c(ncn2C)n(C)c1=O [lisofylline]
ALI/ARDS
  Outcome in large trials for ALI/ARDS: failed

## CC(C)(O)c1ccccc1CC[C@@H](SCC1(CC(=O)O)CC1)c1cccc(/C=C/c2ccc3ccc(Cl)cc3n2)c1 [montelukast]
[4]; adult patients for 22 weeks
  Doses without clinically important adverse experiences: up to 200 mg/day
[4]; short-term studies, approximately one week
  Doses without clinically important adverse experiences: up to 900 mg/day
[5]; IV 7 mg vs approved 10 mg oral tablet
  Plasma concentration area under the curve profile, IV vs oral tablet: comparable
[5]
  Time to reach steady state level: two
[5]; listed as Montelukast
  Time to reach steady state level: less than two
[5]; in vivo
  Absorption: rapidly absorbed
  Linear pharmacokinetics to dose: ≤ 50 mg
  Time to peak plasma concentration: 3 to 4 h
[5]; standard meal
  Effect of a standard meal on oral bioavailability and C.: not affected

## CCOC(=O)C1=C[C@@H](OC(CC)CC)[C@H](NC(C)=O)[C@@H](N)C1 [oseltamivir]
influenza
  Influenza related lower respiratory tract complications: did not appear to reduce

## O=C1N[C@H](C(=O)O)CS1 [procysteine]
ALI/ARDS
  Outcome in large trials for ALI/ARDS: failed
